Test results from article PMC11255104 (Food Chemistry: X, 2024).

Experiment: Pharmacokinetic study in rats after oral administration of MOL extract
Format: in vivo, Sprague-Dawley rats
[1] = male, Sprague-Dawley, rat, plasma, po, 30 g/kg

half-life [1] [h]	Cmax [1] [ng/mL]	Tmax [1] [h]	time over which the substance could be detected in plasma (rat plasma, oral MOL extract 30 g/kg) [h]	Compound
5.06				O=C(/C=C/c1ccc(O)c(O)c1)O[C@@H]1C[C@](O)(C(=O)O)C[C@@H](O)[C@H]1O [Chlorogenic acid]
	643	0.24	≤ 12	O=c1c(O[C@@H]2O[C@H](CO)[C@@H](O)[C@H](O)[C@H]2O)c(-c2ccc(O)c(O)c2)oc2cc(O)cc(O)c12 [Isoquercitrin]
